Test results taken from patent US4971967A, “Quinolinecarboxylic acid derivatives, antibacterial compositions and use” (Kanebo Ltd, priority 1989, dated 1990).
In brackets after ≈: the same amount, converted by molar mass. Structures can show the parent of a compound that is named as a salt. Where two headings read alike, the source gives them in different places.

Legend:
[1] = system: Morganella morganii IFO 3848; assay: Antibacterial activity (MIC), Morganella morganii IFO 3848; type: cell-based; conditions: Morganella morganii, IFO3848, Morganella morganii IFO 3848, Gram -; read-out: Minimum inhibitory concentration (MIC)
Description: (§1) The compounds of the present invention (A, C, D, E, F, G, H, I, J, L, O and P) and the known compound (X) as reference were dissolved in 0.1 N aqueous sodium hydroxide to prepare a solution of 5000 μg/ml in concentration. The compounds of the present invention (B, K, M and N) and the known compound (Y) were dissolved in sterilized distilled water to prepare a solution of 5000 μg/ml in concentration. Each solution was diluted with sterilized distilled water to prepare a standard solution with a concentration of each test compound: 1000 μg/ml. The test was carried out by a method as appointed by Japan Society of Chemotherapy [cf. Chemotherapy, 29, 76-79 (1981)(TOKYO)].

[2] = system: Bacillus subtilis ATCC 6633; assay: Antibacterial activity (MIC), Bacillus subtilis ATCC 6633; type: cell-based; conditions: Bacillus subtilis, ATCC6633, Bacillus subtilis ATCC 6633, Gram +; read-out: Minimum inhibitory concentration (MIC)
Description: as §1

[3] = system: Enterobacter aerogenes ATCC 13048; assay: Antibacterial activity (MIC), Enterobacter aerogenes ATCC 13048; type: cell-based; conditions: Klebsiella aerogenes, ATCC13048; Enterobacter aerogenes ATCC 13048, Gram -; read-out: Minimum inhibitory concentration (MIC)
Description: as §1

[4] = system: Citrobacter freundii NIHJ 10018-68; assay: Antibacterial activity (MIC), Citrobacter freundii NIHJ 10018-68; type: cell-based; conditions: Citrobacter freundii, NIHJ10018, Citrobacter freundii NIHJ 10018-68, Gram -; read-out: Minimum inhibitory concentration (MIC)
Description: as §1

[5] = system: Salmonella typhimurium IID 971; assay: Antibacterial activity (MIC), Salmonella typhimurium IID 971; type: cell-based; conditions: Salmonella enterica; Salmonella typhimurium IID 971, Gram -; read-out: Minimum inhibitory concentration (MIC)
Description: as §1

[6] = system: Micrococcus luteus ATCC 9341; assay: Antibacterial activity (MIC), Micrococcus luteus ATCC 9341; type: cell-based; conditions: ATCC9341; Micrococcus luteus ATCC 9341, Gram +; read-out: Minimum inhibitory concentration (MIC)
Description: as §1

[7] = system: Escherichia coli NIHJ JC-2; assay: Antibacterial activity (MIC), E. coli NIHJ JC-2; type: cell-based; conditions: NIHJJC2; Escherichia coli NIHJ JC-2, Gram -; read-out: Minimum inhibitory concentration (MIC)
Description: as §1

[8] = system: Pseudomonas aeruginosa IFO 3445; assay: Antibacterial activity (MIC), P. aeruginosa IFO 3445; type: cell-based; conditions: Pseudomonas aeruginosa, IFO3445, Pseudomonas aeruginosa IFO 3445, Gram -; read-out: Minimum inhibitory concentration (MIC)
Description: as §1

[9] = system: Staphylococcus aureus IID 803; assay: Antibacterial activity (MIC), S. aureus IID 803; type: cell-based; conditions: IID803; Staphylococcus aureus IID 803, Gram +; read-out: Minimum inhibitory concentration (MIC)
Description: as §1

[10] = system: Klebsiella pneumoniae PCI-602; assay: Antibacterial activity (MIC), Klebsiella pneumoniae PCI-602; type: cell-based
Description: as §1

Proteus vulgaris OX-19 = assay: Antibacterial activity (MIC), Proteus vulgaris OX-19; type: cell-based; conditions: OX19; Proteus vulgaris OX-19, Gram -; read-out: Minimum inhibitory concentration (MIC)
Description: as §1

[11] = system: Pseudomonas aeruginosa E-2; assay: Antibacterial activity (MIC), P. aeruginosa E-2; type: cell-based; conditions: E2; Pseudomonas aeruginosa E-2, Gram -; read-out: Minimum inhibitory concentration (MIC)
Description: as §1

Escherichia coli KC-14 = assay: Antibacterial activity (MIC), E. coli KC-14; type: cell-based; conditions: KC14; Escherichia coli KC-14, Gram -; read-out: Minimum inhibitory concentration (MIC)
Description: as §1

[12] = system: Streptococcus faecalis IID 682; assay: Antibacterial activity (MIC), Streptococcus faecalis IID 682; type: cell-based; conditions: Enterococcus faecalis, IID682, Streptococcus faecalis IID 682, Gram +; read-out: Minimum inhibitory concentration (MIC)
Description: as §1

[13] = system: Staphylococcus epidermidis IAM-1296; assay: Antibacterial activity (MIC), S. epidermidis IAM-1296; type: cell-based; conditions: Staphylococcus epidermidis, IAM1296, Staphylococcus epidermidis IAM-1296, Gram +; read-out: Minimum inhibitory concentration (MIC)
Description: as §1

Shigella sonnei EW-33 = assay: Antibacterial activity (MIC), Shigella sonnei EW-33; type: cell-based; conditions: Shigella sonnei, EW33, Shigella sonnei EW-33, Gram -; read-out: Minimum inhibitory concentration (MIC)
Description: as §1

[14] = system: Acinetobacter calcoaceticus AC 54; assay: Antibacterial activity (MIC), Acinetobacter calcoaceticus AC 54; type: cell-based; conditions: AC54; Acinetobacter calcoaceticus AC 54, Gram -; read-out: Minimum inhibitory concentration (MIC)
Description: as §1

Enterobacter cloacae 963 = assay: Antibacterial activity (MIC), Enterobacter cloacae 963; type: cell-based; conditions: Enterobacter cloacae, 963, Enterobacter cloacae 963, Gram -; read-out: Minimum inhibitory concentration (MIC)
Description: as §1

[15] = system: Serratia marcescens IAM 1184; assay: Antibacterial activity (MIC), Serratia marcescens IAM 1184; type: cell-based; conditions: Serratia marcescens, IAM1184, Serratia marcescens IAM 1184, Gram -; read-out: Minimum inhibitory concentration (MIC)
Description: as §1

[16] = system: Proteus mirabilis IFO 3849; assay: Antibacterial activity (MIC), Proteus mirabilis IFO 3849; type: cell-based; conditions: IFO3849; Proteus mirabilis IFO 3849, Gram -; read-out: Minimum inhibitory concentration (MIC)
Description: as §1

[17] = system: Staphylococcus aureus FDA 209P JC-1; assay: Antibacterial activity (MIC), S. aureus FDA 209P JC-1; type: cell-based; conditions: FDA209P; Staphylococcus aureus FDA 209P JC-1, Gram +; read-out: Minimum inhibitory concentration (MIC)
Description: as §1

[18] = system: Pseudomonas aeruginosa NCTC 10490; assay: Antibacterial activity (MIC), P. aeruginosa NCTC 10490; type: cell-based; conditions: Pseudomonas aeruginosa, NCTC10490, Pseudomonas aeruginosa NCTC 10490, Gram -; read-out: Minimum inhibitory concentration (MIC)
Description: as §1

[19] = system: Staphylococcus aureus IID 803; assay: Effect on treatment of general infectious disease, S. aureus IID 803 (Experiment 3); type: in vivo, ddY male mice infected with Staphylococcus aureus; conditions: IID803, 168 h, oral, 1 h after i.p. infection, 5.0×10^7 CFU/mouse, survival after one week
Description: Staphylococcus aureus IID 803 (5.0×10^7 CFU/mouse)
(§2) The test microorganisms were subjected to standing culture in Trypto-Soya Agar "Nissui" (made by Nissui Seiyaku K.K., Japan) at 37° C. for 16 to 18 hours. The culture was then diluted with PBS (Dulbecco's phosphate buffered saline) and mixed with an equivalent amount of 10% (w/v) Mucin (BACTO MUCIN BACTERIOLOGICAL, made by Difco Co.) to prepare a microorganism solution. The thus prepared microorganism solution (0.5 ml each) was intraperitoneally inoculated to ddY male mice (5 weeks age, weighing 25-28 g, 5 mice in each group), to infect the animals. One hour after the infection, the compound (A) or (J) of the present invention or the known compound (X) suspended in 1% (w/v) aqueous gum arabic or the known compound (Y) dissolved in sterilized distilled water was orally adiministered to mice.
(§3) The mice were daily observed for one week, and from the survival number of mice after one week, the 50% effective dose (ED50) was calculated by Weil method.

[20] = system: Pseudomonas aeruginosa E-2; assay: Effect on treatment of general infectious disease, P. aeruginosa E-2 (Experiment 3); type: in vivo, ddY male mice infected with Pseudomonas aeruginosa; conditions: E2, 168 h, oral, 1 h after i.p. infection, 3.1×10^4 CFU/mouse, survival after one week
Description: Pseudomonas aeruginosa E-2 (3.1×10^4 CFU/mouse)
as §2, §3

[21] = system: clinically isolated methicillin resistant Staphylococcus aureus; assay: MIC against clinically isolated methicillin resistant Staphylococcus aureus; type: cell-based; conditions: 54 strains; for MIC50: minimum concentration for inhibiting growth of the strains by 50%; for MIC90: minimum concentration for inhibiting growth of the strains by 90%
Description: The compounds (A) and (J) of the present invention and the known compound (X) were dissolved in 0.1 N aqueous sodium hydroxide, and the known compound (Y) in sterilized distilled water, to prepare a solution of 5000 μg/ml in concentration each. The above solutions were then diluted with sterilized distilled water to prepare a standard solution with a concentration of the test compound: 1000 μg/ml each. The test was carried out by a method appointed by Japan Society of Chemotherapy (ibidem) to measure minimum inhibitory concentration (MIC) against 54 strains of clinically isolated methicillin resistant Staphylococcus aureus, from which there were calculated a range of MIC (MICrange) of the test compound against these resistant strains, a minimum concentration for inhibiting the growth of the strains by 50% (MIC50) and a minimum concentration for inhibiting the growth of the strains by 90% (MIC90).

[22] = PCI602, Klebsiella pneumoniae PCI-602, Gram -, read-out: Minimum inhibitory concentration (MIC)

`CNCC1CCN(c2c(F)cc3c(=O)c(C(=O)O)c4scc5n4c3c2N(C)C5)C1` (stereo not shown) [Compound (N), 9,1-(Methylimino)methano-7-fluoro-8-(3-methylaminomethyl-1-pyrrolidinyl)-5-oxo-5H-thiazolo[3,2-a]quinoline-4-carboxylic acid hydrochloride] gave an MIC [1] of 0.2 µg/mL, an MIC [2] of 0.025 µg/mL and an MIC [3] of 0.2 µg/mL. It also gave an MIC [4] of 0.78 µg/mL, an MIC [5] of 0.1 µg/mL and an MIC [6] of 0.2 µg/mL. It also gave an MIC [7] of 0.1 µg/mL, an MIC [8] of 0.78 µg/mL and an MIC [9] of 0.0125 µg/mL. It also gave an MIC [10, 22] of 0.0125 µg/mL, an MIC (Proteus vulgaris OX-19) of 0.05 µg/mL and an MIC [11] of 0.78 µg/mL. The MIC (Escherichia coli KC-14) was 0.05 µg/mL, the MIC [12] was 0.05 µg/mL and the MIC [13] was 0.05 µg/mL. The MIC (Shigella sonnei EW-33) was 0.05 µg/mL, the MIC [14] was 0.05 µg/mL and the MIC (Enterobacter cloacae 963) was 0.1 µg/mL. For the same molecule, the MIC [15] was 0.78 µg/mL, the MIC [16] was 0.39 µg/mL and the MIC [17] was 0.025 µg/mL. It also gave an MIC [18] of 0.39 µg/mL.
`CC1COc2c(N3CCN(C)CC3)c(F)cc3c(=O)c(C(=O)O)cn1c23` (stereo not shown) [Compound (X), 9-Fluoro-3-methyl-10-(4-methyl-1-piperazinyl)-7-oxo-2,3-dihydro-7H-pyrido[1,2,3-de][1,4]-benzoxazine-6-carboxylic acid, reference compound] was tested, and the MIC [1] was 0.1 µg/mL (≈ 0.277 µM), the MIC [2] was 0.1 µg/mL (≈ 0.277 µM) and the MIC [3] was 0.1 µg/mL (≈ 0.277 µM). For the same molecule, the MIC [4] was 0.39 µg/mL (≈ 1.08 µM), the MIC [5] was 0.05 µg/mL (≈ 0.138 µM) and the ED50 [19] was 14 mg/kg. The MIC [6] was 3.13 µg/mL (≈ 8.66 µM), the MIC [7] was 0.1 µg/mL (≈ 0.277 µM) and the MIC [8] was 1.56 µg/mL (≈ 4.32 µM). The ED50 [20] was 14 mg/kg, the MIC [9] was 0.39 µg/mL (≈ 1.08 µM) and the MIC [10, 22] was 0.05 µg/mL (≈ 0.138 µM). It also gave an MIC (Proteus vulgaris OX-19) of 0.05 µg/mL (≈ 0.138 µM), an MIC [11] of 1.56 µg/mL (≈ 4.32 µM) and an MIC (Escherichia coli KC-14) of 0.1 µg/mL (≈ 0.277 µM). The MIC [12] was 1.56 µg/mL (≈ 4.32 µM), the MIC [13] was 0.78 µg/mL (≈ 2.16 µM) and the MIC (Shigella sonnei EW-33) was 0.05 µg/mL (≈ 0.138 µM). It also gave an MIC [14] of 0.39 µg/mL (≈ 1.08 µM), an MIC (Enterobacter cloacae 963) of 0.2 µg/mL (≈ 0.553 µM) and an MIC [15] of 0.78 µg/mL (≈ 2.16 µM). It also gave an MIC [16] of 0.39 µg/mL (≈ 1.08 µM), an MIC [21] of 0.39 to 1.56 µg/mL (≈ 1.08 to 4.32 µM) and an MIC50 [21] of 0.78 µg/mL (≈ 2.16 µM). For the same molecule, the MIC90 [21] was 1.56 µg/mL (≈ 4.32 µM), the MIC [17] was 0.39 µg/mL (≈ 1.08 µM) and the MIC [18] was 1.56 µg/mL (≈ 4.32 µM).
`CN1CCN(c2c(F)cc3c(=O)c(C(=O)O)c4scc5n4c3c2OC5)CC1` [Compound (Y), 9,1-Epoxymethano-7-fluoro-8-(4-methyl-1-piperazinyl)-5-oxo-5H-thiazolo[3,2-a]quinoline-4-carboxylic acid hydrochloride, reference compound] was tested, and the MIC [1] was 0.1 µg/mL, the MIC [2] was 0.1 µg/mL and the MIC [3] was 0.1 µg/mL. The MIC [4] was 0.2 µg/mL, the MIC [5] was 0.05 µg/mL and the ED50 [19] was 11.7 mg/kg. The MIC [6] was 1.56 µg/mL, the MIC [7] was 0.1 µg/mL and the MIC [8] was 1.56 µg/mL. For the same molecule, the ED50 [20] was 11.7 mg/kg, the MIC [9] was 0.2 µg/mL and the MIC ([10]; Klebsiella pneumoniae, PCI602, read-out: Minimum inhibitory concentration (MIC)) was 0.025 µg/mL. The MIC (Proteus vulgaris OX-19) was 0.05 µg/mL, the MIC [11] was 0.78 µg/mL and the MIC (Escherichia coli KC-14) was 0.1 µg/mL. For the same molecule, the MIC [12] was 0.78 µg/mL, the MIC [13] was 0.39 µg/mL and the MIC (Shigella sonnei EW-33) was 0.05 µg/mL. The MIC [14] was 0.2 µg/mL, the MIC (Enterobacter cloacae 963) was 0.1 µg/mL and the MIC [15] was 0.39 µg/mL. For the same molecule, the MIC [16] was 0.2 µg/mL, the MIC [21] was 0.05 to 0.39 µg/mL and the MIC50 [21] was 0.1 µg/mL. For the same molecule, the MIC90 [21] was 0.2 µg/mL, the MIC [17] was 0.2 µg/mL and the MIC [18] was 0.78 µg/mL.
